Reference: patent US9469650B2, “Melampomagnolide B derivatives” (BOARD OF TRUSTEES OF THE UNIVERSITY OF ARKANSAS, priority 2013, dated 2016)

Columns and labels:
[1] = tested on: HCC-2998; assay: panel of 60 human tumor cell lines, growth inhibition (Colon Cancer); conditions: for Percent Growth: HCC-2998
[2] = tested on: MCF7; assay: panel of 60 human tumor cell lines, growth inhibition (Breast Cancer); conditions: for Percent Growth: MCF7
[3] = tested on: SF-539; assay: panel of 60 human tumor cell lines, growth inhibition (CNS Cancer)
[4] = tested on: SNB-19; assay: as above
[5] = tested on: NCI-H23; assay: panel of 60 human tumor cell lines, growth inhibition (Non-Small Cell Lung Cancer)
[6] = tested on: HOP-92; assay: as above; conditions: for Percent Growth: HOP-92
[7] = tested on: NCI-H322M; assay: as above
[8] = tested on: MOLT-4; assay: panel of 60 human tumor cell lines, growth inhibition (Leukemia)
[9] = tested on: HCT-15; assay: panel of 60 human tumor cell lines, growth inhibition (Colon Cancer)
[10] = tested on: IGROV1; assay: panel of 60 human tumor cell lines, growth inhibition (Ovarian Cancer); conditions: for Percent Growth: IGROVI
[11] = tested on: SK-OV-3; assay: as above
[12] = tested on: T-47D; assay: panel of 60 human tumor cell lines, growth inhibition (Breast Cancer); conditions: for Percent Growth: T-47D
[13] = tested on: BT-549; assay: as above
[14] = tested on: NCI-H460; assay: panel of 60 human tumor cell lines, growth inhibition (Non-Small Cell Lung Cancer)
[15] = tested on: ACHN; assay: panel of 60 human tumor cell lines, growth inhibition (Renal Cancer)
[16] = tested on: UO-31; assay: as above
[17] = tested on: SK-MEL-5; assay: panel of 60 human tumor cell lines, growth inhibition (Melanoma); conditions: for Percent Growth: 8K-MEL-5
[18] = tested on: RXF 393; assay: panel of 60 human tumor cell lines, growth inhibition (Renal Cancer); conditions: for Percent Growth: RXF 393
[19] = tested on: MDA-MB-435; assay: panel of 60 human tumor cell lines, growth inhibition (Melanoma)

C=C1C(=O)O[C@H]2[C@H]1CC/C(COC(=O)CCC(=O)NCc1ccc(Cl)nc1)=C\CC[C@@]1(C)O[C@@H]21 [JVM 96]
Percent Growth ([1]; Log10 Concentration −4.0): −90%
Percent Growth ([1]; Log10 Concentration −5.0): 76%
Percent Growth ([1]; Log10 Concentration −6.0): 108%
Percent Growth ([1]; Log10 Concentration −7.0): 101%
Percent Growth ([1]; Log10 Concentration −8.0): 99%
GI50 ([1]; Homo sapiens, HCC 2998): 14.4 µM
CC50 ([1]; Homo sapiens, HCC 2998, read-out: LC50): 57.3 µM
IC (TGI) ([1]; Homo sapiens, HCC 2998, read-out: TGI): 28.7 µM
GI50 ([2]; Homo sapiens, MCF7, MCF7): 3.2 µM
CC50 ([2]; Homo sapiens, MCF7, read-out: LC50): 58.9 µM
IC (TGI) ([2]; Homo sapiens, MCF7, read-out: TGI): 13.6 µM
Percent Growth ([2]; Log10 Concentration −4.0): −68%
Percent Growth ([2]; Log10 Concentration −5.0): 10%
Percent Growth ([2]; Log10 Concentration −6.0): 90%
Percent Growth ([2]; Log10 Concentration −7.0): 89%
Percent Growth ([2]; Log10 Concentration −8.0): 90%
GI50 ([3]; Homo sapiens, SF-539): 3.25 µM
CC50 ([3]; Homo sapiens, SF-539, read-out: LC50): 40.8 µM
IC (TGI) ([3]; Homo sapiens, SF-539, read-out: TGI): 12.2 µM
Percent Growth ([3]; SF-539, Log10 Concentration −4.0): −87%
Percent Growth ([3]; SF-539, Log10 Concentration −5.0): 8%
Percent Growth ([3]; SF-539, Log10 Concentration −6.0): 94%
Percent Growth ([3]; SF-539, Log10 Concentration −7.0): 85%
Percent Growth ([3]; SF-539, Log10 Concentration −8.0): 96%
GI50 ([4]; Homo sapiens, SNB-19): 15.6 µM
CC50 ([4]; Homo sapiens, SNB-19, read-out: LC50): > 100 µM
IC (TGI) ([4]; Homo sapiens, SNB-19, read-out: TGI): 42.3 µM
Percent Growth ([4]; SNB-19, Log10 Concentration −4.0): −43%
Percent Growth ([4]; SNB-19, Log10 Concentration −5.0): 72%
Percent Growth ([4]; SNB-19, Log10 Concentration −6.0): 88%
Percent Growth ([4]; SNB-19, Log10 Concentration −7.0): 96%
Percent Growth ([4]; SNB-19, Log10 Concentration −8.0): 93%
GI50 ([5]; Homo sapiens, NCI-H23): 18.4 µM
CC50 ([5]; Homo sapiens, NCI-H23, read-out: LC50): > 100 µM
IC (TGI) ([5]; Homo sapiens, NCI-H23, read-out: TGI): 45.7 µM
Percent Growth ([5]; NCI-H23, Log10 Concentration −4.0): −43%
Percent Growth ([5]; NCI-H23, Log10 Concentration −5.0): 83%
Percent Growth ([5]; NCI-H23, Log10 Concentration −6.0): 103%
Percent Growth ([5]; NCI-H23, Log10 Concentration −7.0): 103%
Percent Growth ([5]; NCI-H23, Log10 Concentration −8.0): 96%
Percent Growth ([6]; Log10 Concentration −4.0): −93%
Percent Growth ([6]; Log10 Concentration −5.0): −2%
Percent Growth ([6]; Log10 Concentration −6.0): 90%
Percent Growth ([6]; Log10 Concentration −7.0): 93%
Percent Growth ([6]; Log10 Concentration −8.0): 93%
GI50 ([6]; Homo sapiens, HOP-92, HOP-92): 2.72 µM
CC50 ([6]; Homo sapiens, HOP-92, read-out: LC50): 33.7 µM
IC (TGI) ([6]; Homo sapiens, HOP-92, read-out: TGI): 9.47 µM
GI50 ([7]; Homo sapiens): 29.6 µM
CC50 ([7]; Homo sapiens, read-out: LC50): > 100 µM
IC (TGI) ([7]; Homo sapiens, read-out: TGI): > 100 µM
Percent Growth ([7]; Log10 Concentration −4.0): 5%
Percent Growth ([7]; Log10 Concentration −5.0): 90%
Percent Growth ([7]; Log10 Concentration −6.0): 99%
Percent Growth ([7]; Log10 Concentration −7.0): 95%
Percent Growth ([7]; Log10 Concentration −8.0): 92%
GI50 ([8]; Homo sapiens, MOLT-4): 6.22 µM
CC50 ([8]; Homo sapiens, MOLT-4, read-out: LC50): > 100 µM
IC (TGI) ([8]; Homo sapiens, MOLT-4, read-out: TGI): 38.2 µM
Percent Growth ([8]; MOLT-4, Log10 Concentration −4.0): −25%
Percent Growth ([8]; MOLT-4, Log10 Concentration −5.0): 34%
Percent Growth ([8]; MOLT-4, Log10 Concentration −6.0): 110%
Percent Growth ([8]; MOLT-4, Log10 Concentration −7.0): 105%
Percent Growth ([8]; MOLT-4, Log10 Concentration −8.0): 97%
Percent Growth ([9]; HCT-15, Log10 Concentration −4.0): −88%
Percent Growth ([9]; HCT-15, Log10 Concentration −5.0): 16%
Percent Growth ([9]; HCT-15, Log10 Concentration −6.0): 8.9%
Percent Growth ([9]; HCT-15, Log10 Concentration −7.0): 93%
Percent Growth ([9]; HCT-15, Log10 Concentration −8.0): 93%
GI50 ([9]; Homo sapiens, HCT-15): 3.43 µM
CC50 ([9]; Homo sapiens, HCT-15, read-out: LC50): 43.1 µM
IC (TGI) ([9]; Homo sapiens, HCT-15, read-out: TGI): 14.2 µM
GI50 ([10]; Homo sapiens, IGROV-1): 16.7 µM
CC50 ([10]; Homo sapiens, IGROV-1, read-out: LC50): 95.5 µM
IC (TGI) ([10]; Homo sapiens, IGROV-1, read-out: TGI): 39.9 µM
Percent Growth ([10]; Log10 Concentration −4.0): −53%
Percent Growth ([10]; Log10 Concentration −5.0): 79%
Percent Growth ([10]; Log10 Concentration −6.0): 107%
Percent Growth ([10]; Log10 Concentration −7.0): 106%
Percent Growth ([10]; Log10 Concentration −8.0): 107%
GI50 ([11]; Homo sapiens, SK-OV-3): 28 µM
CC50 ([11]; Homo sapiens, SK-OV-3, read-out: LC50): > 100 µM
IC (TGI) ([11]; Homo sapiens, SK-OV-3, read-out: TGI): 70.5 µM
Percent Growth ([11]; SK-OV-3, Log10 Concentration −4.0): −19%
Percent Growth ([11]; SK-OV-3, Log10 Concentration −5.0): 106%
Percent Growth ([11]; SK-OV-3, Log10 Concentration −6.0): 106%
Percent Growth ([11]; SK-OV-3, Log10 Concentration −7.0): 104%
Percent Growth ([11]; SK-OV-3, Log10 Concentration −8.0): 99%
GI50 ([12]; Homo sapiens, T47D): 3.52 µM
CC50 ([12]; Homo sapiens, T47D, read-out: LC50): 55.9 µM
IC (TGI) ([12]; Homo sapiens, T47D, read-out: TGI): 14.4 µM
Percent Growth ([12]; Log10 Concentration −4.0): −71%
Percent Growth ([12]; Log10 Concentration −5.0): 13%
Percent Growth ([12]; Log10 Concentration −6.0): 94%
Percent Growth ([12]; Log10 Concentration −7.0): 100%
Percent Growth ([12]; Log10 Concentration −8.0): 100%
Percent Growth ([13]; BT-549, Log10 Concentration −4.0): −97%
Percent Growth ([13]; BT-549, Log10 Concentration −5.0): 32%
Percent Growth ([13]; BT-549, Log10 Concentration −6.0): 93%
Percent Growth ([13]; BT-549, Log10 Concentration −7.0): 139%
Percent Growth ([13]; BT-549, Log10 Concentration −8.0): 102%
GI50 ([13]; Homo sapiens, BT-549): 5.14 µM
CC50 ([13]; Homo sapiens, BT-549, read-out: LC50): 43.1 µM
IC (TGI) ([13]; Homo sapiens, BT-549, read-out: TGI): 17.8 µM
GI50 ([14]; Homo sapiens, NCI-H460): 21.3 µM
CC50 ([14]; Homo sapiens, NCI-H460, read-out: LC50): > 100 µM
IC (TGI) ([14]; Homo sapiens, NCI-H460, read-out: TGI): 53.9 µM
Percent Growth ([14]; NCI-H460, Log10 Concentration −4.0): −33%
Percent Growth ([14]; NCI-H460, Log10 Concentration −5.0): 91%
Percent Growth ([14]; NCI-H460, Log10 Concentration −6.0): 101%
Percent Growth ([14]; NCI-H460, Log10 Concentration −7.0): 102%
Percent Growth ([14]; NCI-H460, Log10 Concentration −8.0): 102%
GI50 ([15]; Homo sapiens): 4.45 µM
CC50 ([15]; Homo sapiens, read-out: LC50): 51.9 µM
IC (TGI) ([15]; Homo sapiens, read-out: TGI): 17.9 µM
Percent Growth ([15]; Log10 Concentration −4.0): −81%
Percent Growth ([15]; Log10 Concentration −5.0): 27%
Percent Growth ([15]; Log10 Concentration −6.0): 92%
Percent Growth ([15]; Log10 Concentration −7.0): 94%
Percent Growth ([15]; Log10 Concentration −8.0): 98%
GI50 ([16]; Homo sapiens, UO-31): 10.2 µM
CC50 ([16]; Homo sapiens, UO-31, read-out: LC50): 53.7 µM
IC (TGI) ([16]; Homo sapiens, UO-31, read-out: TGI): 23.4 µM
Percent Growth ([16]; UO-31, Log10 Concentration −4.0): −87%
Percent Growth ([16]; UO-31, Log10 Concentration −5.0): 51%
Percent Growth ([16]; UO-31, Log10 Concentration −6.0): 92%
Percent Growth ([16]; UO-31, Log10 Concentration −7.0): 88%
Percent Growth ([16]; UO-31, Log10 Concentration −8.0): 87%
Percent Growth ([17]; Log10 Concentration −4.0): −89%
Percent Growth ([17]; Log10 Concentration −5.0): 53%
Percent Growth ([17]; Log10 Concentration −7.0): 98%
Percent Growth ([17]; Log10 Concentration −8.0): 97%
GI50 ([17]; Homo sapiens, SK-MEL-5): 10.5 µM
CC50 ([17]; Homo sapiens, SK-MEL-5, read-out: LC50): 53.1 µM
IC (TGI) ([17]; Homo sapiens, SK-MEL-5, read-out: TGI): 23.7 µM
GI50 ([18]; Homo sapiens, RXF 393, RXF 393): 3.57 µM
CC50 ([18]; Homo sapiens, RXF 393, read-out: LC50): 48.4 µM
IC (TGI) ([18]; Homo sapiens, RXF 393, read-out: TGI): 14.4 µM
Percent Growth ([18]; Log10 Concentration −4.0): −80%
Percent Growth ([18]; Log10 Concentration −5.0): 15%
Percent Growth ([18]; Log10 Concentration −6.0): 93%
Percent Growth ([18]; Log10 Concentration −7.0): 100%
Percent Growth ([18]; Log10 Concentration −8.0): 93%
GI50 ([19]; Homo sapiens, MDA-MB-435): 4.95 µM
CC50 ([19]; Homo sapiens, MDA-MB-435, read-out: LC50): 61.9 µM
IC (TGI) ([19]; Homo sapiens, MDA-MB-435, read-out: TGI): 20.4 µM
Percent Growth ([19]; MDA-MB-435, Log10 Concentration −4.0): −72%
Percent Growth ([19]; MDA-MB-435, Log10 Concentration −5.0): 32%
Percent Growth ([19]; MDA-MB-435, Log10 Concentration −6.0): 90%
Percent Growth ([19]; MDA-MB-435, Log10 Concentration −7.0): 89%
Percent Growth ([19]; MDA-MB-435, Log10 Concentration −8.0): 97%
